# Literature values in patent US12329730B2, “Thermoresponsive hydrogel containing polymer microparticles for controlled drug delivery” (UNIVERSITY OF PITTSBURGH—OF THE COMMONWEALTH SYSTEM OF …, priority 2017, dated 2025).
# System: Streptococcus pneumoniae and Haemophilus influenzae
# Conditions: Jacobs et al. 1999
smiles,measurement,value
O=C(O)c1cn(C2CC2)c2cc(N3CCNCC3)c(F)cc2c1=O [ciprofloxacin],minimum inhibitory concentration (MIC),2 µg/mL
